# From US20250122219A1 (priority 2023, published 2025)
# Where two headings read alike, the source gives them in different places.
# Legend:
# HIV-1 (IIIB) = test: Antiviral assay in MT-4 cells; format: cell-based
# Outline: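 HIV-1 IIIB-infected MT-4 cells (fresh 1:250 virus stock dilution; mock-infected controls) incubated 5 days at 37 °C with serially diluted compounds in RPMI/10% FBS; 5 μM AZT as positive control. Cell viability read by CellTiter-Glo luminescence as measure of protection from viral replication.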
# [1] = Cytotoxicity assay in MT-4 cells; format: cell-based; conditions: human; uninfected MT-4 cells, 5 days incubation, Cell Titer Glo; read-out: MT4 CC50
# Outline: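 Uninfected MT-4 cells exposed to serially diluted compounds in RPMI with 10% FBS for 5 days at 37 °C. Viability by Cell Titer Glo chemiluminescence. Puromycin […] as baseline cytotoxicity control.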
# [2] = Human immunodeficiency virus 1, MT4, 120 h, HIV-1 IIIB in MT-4 cells, 5 days incubation, Cell Titer Glo, read-out: MT4 EC50
Compound,EC50 (HIV-1 (IIIB); [2]) [nM],CC50 at 5 days [1] [µM],"EC50 (HIV-1 (IIIB); Human immunodeficiency virus 1, IIIB, MT4, 120 h, read-out: MT4 EC50 (nM)) [nM]"
"CC1=NO[C@@]2(CC[C@H](C)N3C[C@H]2n2cc(C(=O)NCc4ccc(F)cc4F)c(=O)c(OC(=O)CCCCCCCCCCCCCCCCC(=O)O)c2C3=O)C1 [Example 76, 18-(((3′S,5S,7′R)-10′-((2,4-difluorobenzyl)carbamoyl)-3,3′-dimethyl-1′,11′-dioxo-1′,4′,5′,11′-tetrahydro-3′H,4H,7′H-spiro[isoxazole-5,6′-[2,7]methanopyrido[1,2-a][1,4]diazonin]-12′-yl)oxy)-18-oxooctadecanoic acid]",0.518,46,–
"COC1=NO[C@@]2(CC[C@H](C)N3C[C@H]2n2cc(C(=O)NCc4ccc(F)cc4F)c(=O)c(OC(=O)OCCCCCC(C)C)c2C3=O)C1 [Example 157, (3′S,5S,7′R)-10′-((2,4-difluorobenzyl)carbamoyl)-3-methoxy-3′-methyl-1′,11′-dioxo-1′,4′,5′,11′-tetrahydro-3′H,4H,7′H-spiro[isoxazole-5,6′-[2,7]methanopyrido[1,2-a][1,4]diazonin]-12′-yl (6-methylheptyl) carbonate]",2.33,15.4,–
"CCCCCCCCC(=O)Oc1c2n(cc(C(=O)NCc3ccc(F)cc3F)c1=O)[C@@H]1CN(C2=O)[C@@H](C)CC[C@]12CC(C)=NO2 [Example 43, (3′S,5S,7′R)-10′-((2,4-difluorobenzyl)carbamoyl)-3,3′-dimethyl-1′,11′-dioxo-1′,4′,5′,11′-tetrahydro-3′H,4H,7′H-spiro[isoxazole-5,6′-[2,7]methanopyrido[1,2-a][1,4]diazonin]-12′-yl nonanoate]",1.97,21.1,–
"COC1=NO[C@@]2(CC[C@H](C)N3C[C@H]2n2cc(C(=O)NCc4ccc(F)cc4F)c(=O)c(OC(=O)/C=C/C(=O)O)c2C3=O)C1 [Example 25, (E)-4-(((3′S,5S,7′R)-10′-((2,4-difluorobenzyl)carbamoyl)-3-methoxy-3′-methyl-1′,11′-dioxo-1′,4′,5′,11′-tetrahydro-3′H,4H,7′H-spiro[isoxazole-5,6′-[2,7]methanopyrido[1,2-a][1,4]diazonin]-12′-yl)oxy)-4-oxobut-2-enoic acid]",–,16.2,1.9
"CCCCOC(=O)Oc1c2n(cc(C(=O)NCc3ccc(F)cc3F)c1=O)[C@@H]1CN(C2=O)[C@@H](C)CC[C@]12CC(C)=NO2 [Example 127, butyl butyl ((3′S,5S,7′R)-10′-((2,4-difluorobenzyl)carbamoyl)-3,3′-dimethyl-1′,11′-dioxo-1′,4′,5′,11′-tetrahydro-3′H,4H,7′H-spiro[isoxazole-5,6′-[2,7]methanopyrido[1,2-a][1,4]diazonin]-12′-yl) carbonate]",0.201,13.3,–
"CCCCCCCCCCOC(=O)OCOc1c2n(cc(C(=O)NCc3ccc(F)cc3F)c1=O)[C@@H]1CN(C2=O)[C@@H](C)CC[C@]12CC(OC)=NO2 [Example 189, decyl ((((3′S,5S,7′R)-10′-((2,4-difluorobenzyl)carbamoyl)-3-methoxy-3′-methyl-1′,11′-dioxo-1′,4′,5′,11′-tetrahydro-3′H,4H,7′H-spiro[isoxazole-5,6′-[2,7]methanopyrido[1,2-a][1,4]diazonin]-12′-yl)oxy)methyl) carbonate]",3.54,≥ 50,–
"COC1=NO[C@@]2(CC[C@H](C)N3C[C@H]2n2cc(C(=O)NCc4ccc(F)cc4F)c(=O)c(OCOC(=O)CCCCCC(C)C)c2C3=O)C1 [Example 116, (((3′S,5S,7′R)-10′-((2,4-difluorobenzyl)carbamoyl)-3-methoxy-3′-methyl-1′,11′-dioxo-1′,4′,5′,11′-tetrahydro-3′H,4H,7′H-spiro[isoxazole-5,6′-[2,7]methanopyrido[1,2-a][1,4]diazonin]-12′-yl)oxy)methyl 7-methyloctanoate]",4.17,27.2,–
"CC1=NO[C@@]2(CC[C@H](C)N3C[C@H]2n2cc(C(=O)NCc4ccc(F)cc4F)c(=O)c(OC(=O)OCCCCCCCC(C)C)c2C3=O)C1 [Example 160, (3′S,5S,7′R)-10′-((2,4-difluorobenzyl)carbamoyl)-3,3′-dimethyl-1′,11′-dioxo-1′,4′,5′,11′-tetrahydro-3′H,4H,7′H-spiro[isoxazole-5,6′-[2,7]methanopyrido[1,2-a][1,4]diazonin]-12′-yl (8-methylnonyl) carbonate]",1.64,12.6,–

# More lines, in order of falling EC50 (HIV-1 (IIIB); [2]), values ahead:
EC50 (HIV-1 (IIIB); [2]) [nM],Compound,CC50 at 5 days [1] [µM],"EC50 (HIV-1 (IIIB); Human immunodeficiency virus 1, IIIB, MT4, 120 h, read-out: MT4 EC50 (nM)) [nM]"
41.2,"CCCCCCCCCCCCCCCCCCOC(=O)OCOc1c2n(cc(C(=O)NCc3ccc(F)cc3F)c1=O)[C@@H]1CN(C2=O)[C@@H](C)CC[C@]12CC(OC)=NO2 [Example 197, (((3′S,5S,7′R)-10′-((2,4-difluorobenzyl)carbamoyl)-3-methoxy-3′-methyl-1′,11′-dioxo-1′,4′,5′,11′-tetrahydro-3′H,4H,7′H-spiro[isoxazole-5,6′-[2,7]methanopyrido[1,2-a][1,4]diazonin]-12′-yl)oxy)methyl octadecyl carbonate]",≥ 50,–
8.6,"COC1=NO[C@@]2(CC[C@H](C)N3C[C@H]2n2cc(C(=O)NCc4ccc(F)cc4F)c(=O)c(OCOC(=O)OCCCCCCCC(C)C)c2C3=O)C1 [Example 212, (((3′S,5S,7′R)-10′-((2,4-difluorobenzyl)carbamoyl)-3-methoxy-3′-methyl-1′,11′-dioxo-1′,4′,5′,11′-tetrahydro-3′H,4H,7′H-spiro[isoxazole-5,6′-[2,7]methanopyrido[1,2-a][1,4]diazonin]-12′-yl)oxy)methyl (8-methylnonyl) carbonate]",≥ 50,–
3.82,"COC1=NO[C@@]2(CC[C@H](C)N3C[C@H]2n2cc(C(=O)NCc4ccc(F)cc4F)c(=O)c(OCOC(=O)OCCCC(C)C)c2C3=O)C1 [Example 204, (((3′S,5S,7′R)-10′-((2,4-difluorobenzyl)carbamoyl)-3-methoxy-3′-methyl-1′,11′-dioxo-1′,4′,5′,11′-tetrahydro-3′H,4H,7′H-spiro[isoxazole-5,6′-[2,7]methanopyrido[1,2-a][1,4]diazonin]-12′-yl)oxy)methyl (4-methylpentyl) carbonate]",29.8,–
1.59,"COC1=NO[C@@]2(CC[C@H](C)N3C[C@H]2n2cc(C(=O)NCc4ccc(F)cc4F)c(=O)c(OC(=O)OCCCCCCCC(C)C)c2C3=O)C1 [Example 161, (3′S,5S,7′R)-10′-((2,4-difluorobenzyl)carbamoyl)-3-methoxy-3′-methyl-1′,11′-dioxo-1′,4′,5′,11′-tetrahydro-3′H,4H,7′H-spiro[isoxazole-5,6′-[2,7]methanopyrido[1,2-a][1,4]diazonin]-12′-yl (8-methylnonyl) carbonate]",40.6,–
1.44,COC(=O)N[C@H](C(=O)Oc1c2n(cc(C(=O)NCc3ccc(F)cc3F)c1=O)[C@@H]1CN(C2=O)[C@@H](C)CC[C@]12CC(C)=NO2)C(C)C [Example 81],18.1,–
1.24,"COC1=NO[C@@]2(CC[C@H](C)N3C[C@H]2n2cc(C(=O)NCc4ccc(F)cc4F)c(=O)c(OC(=O)CCC(C)C)c2C3=O)C1 [Example 56, (3′S,5S,7′R)-10′-((2,4-difluorobenzyl)carbamoyl)-3-methoxy-3′-methyl-1′,11′-dioxo-1′,4′,5′,11′-tetrahydro-3′H,4H,7′H-spiro[isoxazole-5,6′-[2,7]methanopyrido[1,2-a][1,4]diazonin]-12′-yl 4-methylpentanoate]",34.7,–
0.75,"CCCCCCC(=O)Oc1c2n(cc(C(=O)NCc3ccc(F)cc3F)c1=O)[C@@H]1CN(C2=O)[C@@H](C)CC[C@]12CC(C)=NO2 [Example 39, (3′S,5S,7′R)-10′-((2,4-difluorobenzyl)carbamoyl)-3,3′-dimethyl-1′,11′-dioxo-1′,4′,5′,11′-tetrahydro-3′H,4H,7′H-spiro[isoxazole-5,6′-[2,7]methanopyrido[1,2-a][1,4]diazonin]-12′-yl heptanoate]",23.7,–
0.648,"COC1=NO[C@@]2(CC[C@H](C)N3C[C@H]2n2cc(C(=O)NCc4ccc(F)cc4F)c(=O)c(OC(=O)OCCCC(C)C)c2C3=O)C1 [Example 153, (3′S,5S,7′R)-10′-((2,4-difluorobenzyl)carbamoyl)-3-methoxy-3′-methyl-1′,11′-dioxo-1′,4′,5′,11′-tetrahydro-3′H,4H,7′H-spiro[isoxazole-5,6′-[2,7]methanopyrido[1,2-a][1,4]diazonin]-12′-yl (4-methylpentyl) carbonate]",23.6,–
0.29,"CCCCCCOC(=O)OCOc1c2n(cc(C(=O)NCc3ccc(F)cc3F)c1=O)[C@@H]1CN(C2=O)[C@@H](C)CC[C@]12CC(OC)=NO2 [Example 182, (((3′S,5S,7′R)-10′-((2,4-difluorobenzyl)carbamoyl)-3-methoxy-3′-methyl-1′,11′-dioxo-1′,4′,5′,11′-tetrahydro-3′H,4H,7′H-spiro[isoxazole-5,6′-[2,7]methanopyrido[1,2-a][1,4]diazonin]-12′-yl)oxy)methyl hexyl carbonate]",47.9,–
0.196,"CC1=NO[C@@]2(CC[C@H](C)N3C[C@H]2n2cc(C(=O)NCc4ccc(F)cc4F)c(=O)c(OC(=O)CCCCCCC(C)C)c2C3=O)C1 [Example 67, (3′S,5S,7′R)-10′-((2,4-difluorobenzyl)carbamoyl)-3,3′-dimethyl-1′,11′-dioxo-1′,4′,5′,11′-tetrahydro-3′H,4H,7′H-spiro[isoxazole-5,6′-[2,7]methanopyrido[1,2-a][1,4]diazonin]-12′-yl 8-methylnonanoate]",18.9,–
